Measured values: US12472196B2, “Use of DNMT inhibitor” (priority 2019, dated 2025)
Read-outs that look alike come from different tables or passages of the source. Blank lines part the entries; values can stand above or below the compound they belong to.

Assays:
cytidine deaminase = cytidine deaminase (Homo sapiens, UniProt P32320); assay: Stability against cytidine deaminase (HPLC)
Protocol: About 1 mg of a silyl etherified derivative of 5-aza-2′-deoxycytidine in carbohydrate moiety (see formula (I)) was dissolved in 1 mL of acetonitrile. 10 μL of the solution was added to 1 mL of PBS. 10 μl of a PBS solution of cytidine deaminase was added to the obtained solution and stirred at 37° C. for about 1 hour. 1 mL of acetonitrile was added to the reaction solution and centrifuged. The supernatant was analyzed with HPLC.
Cytidine deaminase: CDA (1-146aa), Human, His-tagged, Recombinant cytidine deaminase (ATGen) • HPLC conditions: • Column: CAPCELL PAK ADME (4.6 mm×150 mm, particle size: 3 μm) • Elution: eluate A=Purified water containing 10 mM ammonium formate • Eluate B=Acetonitrile • Gradient mode: A:B=99:1→5:95/30 minutes • Flow rate: 1.0 mL/min • Oven temperature: 40° C. • Detection: UV240 nm

MYL = assay: cells; details: 72 h, read-out: IC50 MYL
Protocol: (§1) The CML cell line (BV173, MYL, Ba/F3 BCR-ABL^WT) and the TKI-resistant CML cell line (MYL-R, Ba/F3 BCR-ABL^T315I) in the Table below were seeded in 96-well plates at 3,000-7,000 cells/100 μL/well in a culture solution (10% FBS and RPMI-1640) and cultured under 5% CO2 gas flow at 37° C. for about 3 hours. Then, 100 μL of each compound diluted with the culture solution to 50-0.05 μM MYL, Ba/F3 BCR-ABL^WT, MYL-R, Ba/F3 BCR-ABL^T315I and 500 nM-0.1 nM BV173 was added to the above 96-well plates and cultured for 24 hours, followed by centrifugation (4° C., 1500 rpm, 5 minutes). The supernatant of the culture solution was discarded. 100 μL each of the compounds diluted with the culture solution was added again and cultured further for 24 hours (48 hours totally). The same procedure was repeated. After further culturing for 24 hours (72 hours totally) and reaction using CCK-8 reagent (DOJINDO, CK04) according to its attached instruction, the absorption at 450 nm and 620 nm (blank) of each well was determined with a plate reader (Varioskan Flash, Thermo-Fisher Scientific Co. Ltd.). The values of the wells without sample treatment were taken as 100%, and those of the wells treated with the samples were expressed as relative values. The values of IC50 (μm) were calculated (see Table 3-1). In addition, IC50 ratio of MYL-R cell line to MYL cell line and that of Ba/F3 BCR-ABL^T315I cell line to Ba/F3 BCR-ABL^WT cell line were calculated (see Table 3-2).

BV173 = assay: cells
Protocol: as §1

Ba/F3 BCR-ABL^WT = assay: cells; details: Mus musculus, BaF3, 72 h, read-out: IC50 Ba/F3 BCR-ABL^WT
Protocol: as §1

MYL-R = assay: cells
Protocol: as §1
(§2) MYL-R cell line is an MYL cell line in which Lyn is overexpressed, and Ba/F3 BCR-ABL^T315I cell line is the one in which ABLT315I mutation is introduced into Ba/F3 BCR-ABL^WT cell line. They both have acquired resistance to TKI.

Ba/F3 BCR-ABL^T315I = assay: cells
Protocol: as §1, §2

[1] = system: CpG island of LINE-1 in BV173 cell line; assay: DNA demethylation effect: CpG methylation ratio of LINE-1 by pyrosequencing; format: cell-based; details: BV173, 72 hours
Protocol: The methylation ratio of cytosine moiety of CpG island of LINE-1 (long interspersed nucleotide factor −1) was determined by using a method of pyrosequencing.
Solutions of silyl etherified derivatives of 5-aza-2′-deoxycytidine in carbohydrate moiety (for example, Compound F: 5′-O-(triethylsilyl)-5-aza-2′-deoxycytidine) at concentrations of 0.1 nM, 1.0 nM, 5.0 nM, 10.0 nM, and 50.0 nM were added, respectively to a solution containing BV173 cell line (about 50,000 cells/mL), and cultured in a RPMI-1640 medium (containing 10% FBS and Penn-strep) for 72 hours. Then, DNA was extracted from the cells and treated with hydrogensulfite. CpG methylation ratio of LINE-1 was determined (see Table 4).

[2] = Non-enzymatic hydrolysis in PBS solution at 37° C. (HPLC); format: physicochemical
Protocol: A silyl etherified derivative of 5-aza-2′-deoxycytidine in carbohydrate moiety (see formula (I)), for example, 5′-O-(triethylsilyl)-5-aza-2′-deoxycytidine (Compound F) (about 1 mg) was dissolved in 1 mL of acetonitrile. 5 μL of the solution was added to 100 μL of a PBS solution (10 mM), and stirred at 37° C. The reactant was analyzed over the time with HPLC.
HPLC conditions were same as those in test example 1.

cytidine deaminase, sequence (P32320 whole entry): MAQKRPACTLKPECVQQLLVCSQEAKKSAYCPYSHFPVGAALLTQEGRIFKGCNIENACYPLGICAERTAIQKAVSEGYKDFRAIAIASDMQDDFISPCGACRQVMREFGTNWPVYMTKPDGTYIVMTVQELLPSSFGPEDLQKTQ

stability to cytidine deaminase (in words) (cytidine deaminase): disappeared completely | time within which decomposed in the presence of cytidine deaminase (cytidine deaminase; under the condition used): ≤ 30 min
SMILES: Nc1ncn([C@H]2C[C@H](O)[C@@H](CO)O2)c(=O)n1 [5-Aza-2′-deoxycytidine]
Change in HPLC pattern (cytidine deaminase): The peak for starting material disappeared

SMILES: CC[Si](CC)(CC)OC[C@H]1O[C@@H](n2cnc(N)nc2=O)C[C@@H]1O [Compound F, 5′-O-(Triethylsilyl)-5-aza-2′-deoxycytidine]
IC50 (MYL): 280 nM | anti-CML activity (in words) (BV173; CML cell lines of Table 3-1 (BV173, MYL, Ba/F3 BCR-ABL^WT)): very high anti-CML activity | IC50 (BV173; Homo sapiens, BV-173, 72 h, read-out: IC50 BV173): 5 nM | IC50 (Ba/F3 BCR-ABL^WT): 580 nM | Change in HPLC pattern (cytidine deaminase; PBS with recombinant human cytidine deaminase, 37° C., about 1 hour): Almost no change in the peak for | IC50 (MYL-R; 72 h, read-out: IC50 MYL-R): 790 nM | anti-CML activity against MYL-R strain compared with reference nucleosides (in words) (MYL-R; MYL-R): considerably higher than that in the case of 5-aza cytidine | anti-TKI-resistant CML activity (in words) (MYL-R; TKI-resistant CML cell lines of Table 3-1 (MYL-R, Ba/F3 BCR-ABL^T315I)): anti-TKI-resistant CML activity | IC50 ratio MYL-R/MYL (MYL-R; ratio of IC50 in MYL-R to MYL): 2.8 | IC50 (Ba/F3 BCR-ABL^T315I; Mus musculus, BaF3, 72 h, read-out: IC50 Ba/F3 BCR-ABL^T315I): 780 nM | IC50 ratio Ba/F3 BCR-ABL^T315I/BCR-ABL^WT (Ba/F3 BCR-ABL^T315I; ratio of IC50 in Ba/F3 BCR-ABL^T315I to Ba/F3 BCR-ABL^WT): 1.4 | Methylation ratio ([1]; 0.1 nM): 89.3% | Methylation ratio ([1]; 1.0 nM): 89.7% | Methylation ratio ([1]; 5.0 nM): 88.0% | Methylation ratio ([1]; 10.0 nM): 82.3% | Methylation ratio ([1]; 50.0 nM): 60.0% | 5-Aza-2′-deoxycytidine (%) After 4 hours ([2]; 10 mM PBS, 4 hours, desilyl form produced): 10% | 5-Aza-2′-deoxycytidine (%) After 8 hours ([2]; 10 mM PBS, 8 hours, desilyl form produced): 12% | 5-Aza-2′-deoxycytidine (%) After 24 hours ([2]; 10 mM PBS, 24 hours, desilyl form produced): 48% | non-enzymatic hydrolysis in PBS solution (in words) ([2]; PBS): the corresponding desilyl form (5-aza-2′-deoxycytizine: R^1 and R^2 are hydrogen atoms in formula (I)) was produced almost without other decomposition products
